Reference: publication PMC5218480 (PLoS ONE, 2017)

Tested on: MV-4-11 cells
Test: Gene expression microarray analysis (Affymetrix PrimeView) and GSEA
Type: cell-based, human
Set-up: RFU PODN (11730768_x_at) / Fold change /veh PODN (11730768_x_at) / RFU LINC00158 (11744669_a_at) / Fold change /veh LINC00158 (11744669_a_at) / RFU DUSP10 (11751237_a_at) / Fold change /veh DUSP10 (11751237_a_at) / RFU ID3 (11757404_x_at) / Fold change /veh ID3 (11757404_x_at) / RFU PLEKHG5 (11737974_s_at) / Fold change /veh PLEKHG5 (11737974_s_at) / RFU LRRC4B (11730491_at) / Fold change /veh LRRC4B (11730491_at) / RFU GIMAP4 (11747438_a_at) / Fold change /veh GIMAP4 (11747438_a_at) / RFU KRT8 (11758183_x_at) / Fold change /veh KRT8 (11758183_x_at) / RFU CNN1 (11734310_a_at) / Fold change /veh CNN1 (11734310_a_at) / RFU VPS37D (11726825_at) / Fold change /veh VPS37D (11726825_at) / RFU C10orf10 (11716522_x_at) / Fold change /veh C10orf10 (11716522_x_at) / RFU KIR2DL2 /// KIR2DL4 /// KIR2DL5A /// KIR2DL5B /// KIR2DS1 /// KIR2DS2 /// KIR2DS3 /// KIR2DS4 /// KIR3DL3 /// KIR3DL3 /// KIR3DS1 (11738374_at) / Fold change /veh KIR2DL2 /// KIR2DL4 /// KIR2DL5A /// KIR2DL5B /// KIR2DS1 /// KIR2DS2 /// KIR2DS3 /// KIR2DS4 /// KIR3DL3 /// KIR3DL3 /// KIR3DS1 (11738374_at) / RFU C1QL1 (11718748_at) / Fold change /veh C1QL1 (11718748_at) / RFU TMPRSS4 (11747572_a_at) / Fold change /veh TMPRSS4 (11747572_a_at) / RFU HAMP (11756126_x_at) / Fold change /veh HAMP (11756126_x_at) / RFU RNFT2 (11725882_a_at) / Fold change /veh RNFT2 (11725882_a_at) / RFU NR4A2 (11747474_a_at) / Fold change /veh NR4A2 (11747474_a_at) / RFU ABCC12 (11746883_a_at) / Fold change /veh ABCC12 (11746883_a_at) / RFU TMEM136 (11760407_x_at) / Fold change /veh TMEM136 (11760407_x_at) / RFU CLDN22 /// WWC2 (11732394_at) / Fold change /veh CLDN22 /// WWC2 (11732394_at) / RFU HLA-DPB1 (11760878_x_at) / Fold change /veh HLA-DPB1 (11760878_x_at) / RFU SPINT1 (11716480_a_at) / Fold change /veh SPINT1 (11716480_a_at) / RFU GAP43 (11754022_s_at) / Fold change /veh GAP43 (11754022_s_at) / RFU A4GNT (11735810_at) / Fold change /veh A4GNT (11735810_at) / RFU PRB3 (11715151_x_at) / Fold change /veh PRB3 (11715151_x_at) / RFU TUBB4B (11761932_at) / Fold change /veh TUBB4B (11761932_at) / RFU CAPN14 (11732068_a_at) / Fold change /veh CAPN14 (11732068_a_at) / RFU TMCC2 (11721928_a_at) / Fold change /veh TMCC2 (11721928_a_at) / RFU IRGQ (11745062_a_at) / Fold change /veh IRGQ (11745062_a_at) / RFU FAM174B (11720279_a_at) / Fold change /veh FAM174B (11720279_a_at) / RFU TMPRSS4 (11748680_a_at) / Fold change /veh TMPRSS4 (11748680_a_at) / RFU FAM212B (11763350_a_at) / Fold change /veh FAM212B (11763350_a_at) / RFU PLEKHG5 (11743358_a_at) / Fold change /veh PLEKHG5 (11743358_a_at) / RFU ZSCAN30 (11745921_a_at) / Fold change /veh ZSCAN30 (11745921_a_at) / RFU CMKLR1 (11741424_a_at) / Fold change /veh CMKLR1 (11741424_a_at) / RFU LOC101060620 /// MAPK8IP1 (11723275_at) / Fold change /veh LOC101060620 /// MAPK8IP1 (11723275_at) / RFU SPTSSB (11747773_x_at) / Fold change /veh SPTSSB (11747773_x_at) / RFU PRSS12 (11739890_at) / Fold change /veh PRSS12 (11739890_at) / RFU BIN1 (11741810_x_at) / Fold change /veh BIN1 (11741810_x_at) / RFU WNT11 (11732464_a_at) / Fold change /veh WNT11 (11732464_a_at) / RFU C10orf10 (11716521_a_at) / Fold change /veh C10orf10 (11716521_a_at) / RFU C5orf56 (11738089_at) / Fold change /veh C5orf56 (11738089_at) / RFU CYB561 (11721691_x_at) / Fold change /veh CYB561 (11721691_x_at) / RFU ANKRD19P (11752326_a_at) / Fold change /veh ANKRD19P (11752326_a_at) / RFU OR2T12 /// OR2T33 /// OR2T8 (11738714_s_at) / Fold change /veh OR2T12 /// OR2T33 /// OR2T8 (11738714_s_at) / RFU VCAN (11748164_a_at) / Fold change /veh VCAN (11748164_a_at) / RFU JSRP1 (11732532_at) / Fold change /veh JSRP1 (11732532_at) / RFU KRTAP10-11 (11738290_x_at) / Fold change /veh KRTAP10-11 (11738290_x_at) / RFU MYO3A (11730013_a_at) / Fold change /veh MYO3A (11730013_a_at) / RFU EBF3 (11725865_a_at) / Fold change /veh EBF3 (11725865_a_at) / RFU CAMK2N1 (11719241_x_at) / Fold change /veh CAMK2N1 (11719241_x_at) / RFU C5orf56 (11738088_a_at) / Fold change /veh C5orf56 (11738088_a_at) / RFU OLFML3 (11715873_a_at) / Fold change /veh OLFML3 (11715873_a_at) / RFU LOC100653217 /// NTM (11731650_a_at) / Fold change /veh LOC100653217 /// NTM (11731650_a_at) / RFU MAPK11 (11762145_a_at) / Fold change /veh MAPK11 (11762145_a_at) / RFU FIZ1 (11724087_x_at) / Fold change /veh FIZ1 (11724087_x_at) / RFU OASL (11726364_x_at) / Fold change /veh OASL (11726364_x_at) / RFU SOX15 (11748057_x_at) / Fold change /veh SOX15 (11748057_x_at) / RFU CD79A (11719716_a_at) / Fold change /veh CD79A (11719716_a_at) / RFU HIST1H1D (11736915_at) / Fold change /veh HIST1H1D (11736915_at) / RFU CASKIN2 (11723855_a_at) / Fold change /veh CASKIN2 (11723855_a_at) / RFU LOC730098 (11760151_x_at) / Fold change /veh LOC730098 (11760151_x_at) / RFU OR4N2 (11742367_at) / Fold change /veh OR4N2 (11742367_at) / RFU PRRT2 (11749266_a_at) / Fold change /veh PRRT2 (11749266_a_at) / RFU SNX32 (11753110_a_at) / Fold change /veh SNX32 (11753110_a_at) / RFU CDHR5 (11726645_a_at) / Fold change /veh CDHR5 (11726645_a_at) / RFU RCAN1 (11760418_a_at) / Fold change /veh RCAN1 (11760418_a_at) / RFU FAM167A (11723789_a_at) / Fold change /veh FAM167A (11723789_a_at) / RFU FAM26E (11764081_at) / Fold change /veh FAM26E (11764081_at) / RFU ISYNA1 (11749810_s_at) / Fold change /veh ISYNA1 (11749810_s_at) / RFU ACY1 (11761880_at) / Fold change /veh ACY1 (11761880_at) / RFU 11764098_at / Fold change /veh 11764098_at / RFU SAMD14 (11745864_x_at) / Fold change /veh SAMD14 (11745864_x_at) / RFU NPB (11741838_a_at) / Fold change /veh NPB (11741838_a_at) / RFU TMPRSS6 (11731388_a_at) / Fold change /veh TMPRSS6 (11731388_a_at) / RFU KRTAP10-2 (11738614_at) / Fold change /veh KRTAP10-2 (11738614_at) / RFU ARHGAP8 /// PRR5-ARHGAP8 (11727945_x_at) / Fold change /veh ARHGAP8 /// PRR5-ARHGAP8 (11727945_x_at) / RFU KRTAP5-7 /// NADSYN1 (11734609_at) / Fold change /veh KRTAP5-7 /// NADSYN1 (11734609_at) / RFU RASL12 (11751679_a_at) / Fold change /veh RASL12 (11751679_a_at) / RFU CDKN2B (11736163_a_at) / Fold change /veh CDKN2B (11736163_a_at) / RFU PRF1 (11729649_at) / Fold change /veh PRF1 (11729649_at) / RFU, ZNF638 /// ZNF638-IT1 / Fold change vs veh, ZNF638 /// ZNF638-IT1 / RFU, PANK3 / Fold change vs veh, PANK3 / RFU, SH3YL1 / Fold change vs veh, SH3YL1 / RFU, ZEB2 / Fold change vs veh, ZEB2 / RFU, NRIP1 / Fold change vs veh, NRIP1 / RFU, PTTG1IP / Fold change vs veh, PTTG1IP / RFU, CAPN2 / Fold change vs veh, CAPN2 / RFU, MED14 / Fold change vs veh, MED14 / RFU, SNORA58 / Fold change vs veh, SNORA58 / RFU, C1orf63 / Fold change vs veh, C1orf63 / RFU, LRRFIP1 / Fold change vs veh, LRRFIP1 / RFU, NDUFAF7 / Fold change vs veh, NDUFAF7 / RFU, SLC12A2 / Fold change vs veh, SLC12A2 / RFU, IBTK / Fold change vs veh, IBTK / RFU, ESF1 / Fold change vs veh, ESF1 / Fold change vs veh, TMEM50B / RFU, TAOK1 / Fold change vs veh, TAOK1 / RFU, ACBD3 / Fold change vs veh, ACBD3 / RFU, TMA16 / Fold change vs veh, TMA16 / RFU, RWDD3 / Fold change vs veh, RWDD3 / RFU, BCAT1 / Fold change vs veh, BCAT1 / RFU, EDEM3 / Fold change vs veh, EDEM3 / RFU, TMEM33 / Fold change vs veh, TMEM33 / RFU, WDR75 / Fold change vs veh, WDR75 / RFU, AHCTF1 / Fold change vs veh, AHCTF1 / RFU, TFRC / Fold change vs veh, TFRC / RFU, ZDHHC17 / Fold change vs veh, ZDHHC17 / RFU, NOM1 / Fold change vs veh, NOM1 / RFU, ARL8B / Fold change vs veh, ARL8B / RFU, ZBTB11 / Fold change vs veh, ZBTB11 / RFU, TAMM41 / Fold change vs veh, TAMM41 / RFU, KIAA1704 /// LOC100996395 / Fold change vs veh, KIAA1704 /// LOC100996395 / RFU, ING1 / Fold change vs veh, ING1 / RFU, TRMT61B / Fold change vs veh, TRMT61B / RFU, FUBP3 / Fold change vs veh, FUBP3 / RFU, TP53 / Fold change vs veh, TP53 / RFU, TNKS2 / Fold change vs veh, TNKS2 / RFU, ZFP14 / Fold change vs veh, ZFP14 / RFU, ACTR2 / Fold change vs veh, ACTR2 / RFU, PPP3R1 / Fold change vs veh, PPP3R1 / RFU, PIK3R1 / Fold change vs veh, PIK3R1 / RFU, HNRNPA1 / Fold change vs veh, HNRNPA1 / RFU, RNF170 / Fold change vs veh, RNF170 / RFU, ZNF28 / Fold change vs veh, ZNF28 / RFU, RNGTT / Fold change vs veh, RNGTT / RFU, OGT / Fold change vs veh, OGT / RFU, BRD1 / Fold change vs veh, BRD1 / RFU, MARS / Fold change vs veh, MARS / RFU, ZNF655 / Fold change vs veh, ZNF655 / RFU, FAHD1 / Fold change vs veh, FAHD1 / RFU, BDP1 / Fold change vs veh, BDP1 / RFU, LRRCC1 / Fold change vs veh, LRRCC1 / RFU, ARID1A / Fold change vs veh, ARID1A / RFU, ZNF146 / Fold change vs veh, ZNF146 / RFU, ZNF330 / Fold change vs veh, ZNF330 / RFU, GPN3 / Fold change vs veh, GPN3 / RFU, C9orf123 / Fold change vs veh, C9orf123 / RFU, N4BP2L2 / Fold change vs veh, N4BP2L2 / RFU, ARFIP1 / Fold change vs veh, ARFIP1 / RFU, FAM179B / Fold change vs veh, FAM179B / RFU, BCL10 / Fold change vs veh, BCL10 / RFU, UHRF1BP1L / Fold change vs veh, UHRF1BP1L / RFU, BET1 / Fold change vs veh, BET1 / RFU, CNOT2 / Fold change vs veh, CNOT2 / RFU, ZNF268 / Fold change vs veh, ZNF268 / Fold change vs veh, ZNF507 / RFU, DGCR2 / Fold change vs veh, DGCR2 / RFU, WDSUB1 / Fold change vs veh, WDSUB1 / Fold change vs veh, HSP90B1 /// MIR3652 / RFU, ADSS / Fold change vs veh, ADSS / RFU, GK / Fold change vs veh, GK / RFU, ZNF148 / Fold change vs veh, ZNF148 / RFU, TAF9 / Fold change vs veh, TAF9 / RFU, SLC1A5 / Fold change vs veh, SLC1A5 / RFU, SLMO2 / Fold change vs veh, SLMO2 / RFU, ABCC4 / Fold change vs veh, ABCC4 / RFU, LOC101060439 /// RAP1B / Fold change vs veh, LOC101060439 /// RAP1B / RFU, RFX7 / Fold change vs veh, RFX7 / RFU, GTPBP10 / Fold change vs veh, GTPBP10 / RFU, CNEP1R1 / Fold change vs veh, CNEP1R1 / RFU, BIVM-ERCC5 /// ERCC5 / Fold change vs veh, BIVM-ERCC5 /// ERCC5 / RFU, ILF3 / Fold change vs veh, ILF3 / RFU 11762660_at / Fold change /veh 11762660_at / RFU VCAN (11757783_s_at) / Fold change /veh VCAN (11757783_s_at) / RFU DDX43 (11728927_at) / Fold change /veh DDX43 (11728927_at) / RFU KRT8 (11758188_x_at) / Fold change /veh KRT8 (11758188_x_at) / RFU NKD1 (11759106_at) / Fold change /veh NKD1 (11759106_at) / RFU SRD5A1 (11742802_a_at) / Fold change /veh SRD5A1 (11742802_a_at) / RFU TPSAB1 /// TPSB2 (11721975_s_at) / Fold change /veh TPSAB1 /// TPSB2 (11721975_s_at) / RFU GSTM3 (11746129_a_at) / Fold change /veh GSTM3 (11746129_a_at) / RFU IL23R (11737362_x_at) / Fold change /veh IL23R (11737362_x_at) / RFU TMEM51 (11727254_a_at) / Fold change /veh TMEM51 (11727254_a_at) / RFU PIWIL2 (11732686_x_at) / Fold change /veh PIWIL2 (11732686_x_at) / RFU ORM1 (11744905_x_at) / Fold change /veh ORM1 (11744905_x_at) / RFU CCDC152 (11743942_at) / Fold change /veh CCDC152 (11743942_at) / RFU ECM1 (11717891_a_at) / Fold change /veh ECM1 (11717891_a_at) / RFU IL23R (11748794_a_at) / Fold change /veh IL23R (11748794_a_at) / RFU TNFAIP8L3 (11732012_x_at) / Fold change /veh TNFAIP8L3 (11732012_x_at) / RFU MBOAT4 (11741988_at) / Fold change /veh MBOAT4 (11741988_at) / RFU 11764193_at / Fold change /veh 11764193_at / RFU TMEM53 (11763286_at) / Fold change /veh TMEM53 (11763286_at) / RFU MAGEB2 (11727129_at) / Fold change /veh MAGEB2 (11727129_at) / RFU TMEM200A (11744735_a_at) / Fold change /veh TMEM200A (11744735_a_at) / RFU CCDC152 (11751479_a_at) / Fold change /veh CCDC152 (11751479_a_at) / RFU FAM211A (11726209_a_at) / Fold change /veh FAM211A (11726209_a_at) / RFU RGS16 (11746705_a_at) / Fold change /veh RGS16 (11746705_a_at) / RFU VCAN (11755009_s_at) / Fold change /veh VCAN (11755009_s_at) / RFU RHOB (11743442_s_at) / Fold change /veh RHOB (11743442_s_at) / RFU RGS16 (11720943_a_at) / Fold change /veh RGS16 (11720943_a_at) / RFU RGS16 (11720944_at) / Fold change /veh RGS16 (11720944_at) / RFU, VPS4B / Fold change vs veh, VPS4B / RFU, CREB1 / Fold change vs veh, CREB1 / RFU, DNAJC13 / Fold change vs veh, DNAJC13 / RFU, GNAQ / Fold change vs veh, GNAQ / RFU, CDK5R1 / Fold change vs veh, CDK5R1 / RFU, ZRANB3 / Fold change vs veh, ZRANB3 / RFU, CUL4A / Fold change vs veh, CUL4A / RFU, CCNY / Fold change vs veh, CCNY / RFU, UFL1 / Fold change vs veh, UFL1 / RFU, COG3 / Fold change vs veh, COG3 / RFU, DIAPH2 / Fold change vs veh, DIAPH2 / RFU, SKA2 / Fold change vs veh, SKA2 / RFU, AFF3 / Fold change vs veh, AFF3 / RFU, LMF1 / Fold change vs veh, LMF1 / RFU, IPO11 / Fold change vs veh, IPO11 / RFU, DFFB / Fold change vs veh, DFFB / RFU, FOXP1 / Fold change vs veh, FOXP1 / RFU, CARD8 / Fold change vs veh, CARD8 / RFU, STRN3 / Fold change vs veh, STRN3 / RFU, ADK / Fold change vs veh, ADK / RFU, RASSF2 / Fold change vs veh, RASSF2 / RFU, WIPF1 / Fold change vs veh, WIPF1 / RFU, LARP1B / Fold change vs veh, LARP1B / RFU, RASA1 / Fold change vs veh, RASA1 / RFU, RB1 / Fold change vs veh, RB1 / RFU, PPFIA1 / Fold change vs veh, PPFIA1 / RFU, MAT2A / Fold change vs veh, MAT2A / RFU, CCT5 / Fold change vs veh, CCT5 / RFU, WDR92 / Fold change vs veh, WDR92 / RFU, CUX1 / Fold change vs veh, CUX1 / RFU, TTC7A / Fold change vs veh, TTC7A / RFU, TMEM135 / Fold change vs veh, TMEM135 / RFU, DEPTOR / Fold change vs veh, DEPTOR / RFU, CPM / Fold change vs veh, CPM / RFU, DNAJB6 / Fold change vs veh, DNAJB6 / RFU, CACNA2D3 / Fold change vs veh, CACNA2D3 / RFU, DTX4 / Fold change vs veh, DTX4 / RFU, TFCP2 / Fold change vs veh, TFCP2 / RFU, GMCL1 /// GMCL1P1 / Fold change vs veh, GMCL1 /// GMCL1P1 / RFU, AEBP2 / Fold change vs veh, AEBP2 / RFU, SNHG1 /// SNORD22 /// SNORD25 /// SNORD26 /// SNORD27 /// SNORD28 /// SNORD29 /// SNORD31 / Fold change vs veh, SNHG1 /// SNORD22 /// SNORD25 /// SNORD26 /// SNORD27 /// SNORD28 /// SNORD29 /// SNORD31 / Fold change (Aza/veh), C12orf56 (ProbeSet 11735607_a_at) / Fold change (ACY-1035/veh), C12orf56 (ProbeSet 11735607_a_at) / Fold change (Aza/veh), FGFR1OP (ProbeSet 11751329_s_at) / Fold change (ACY-1035/veh), FGFR1OP (ProbeSet 11751329_s_at) / Fold change (Aza/veh), VPS36 (ProbeSet 11739960_a_at) / Fold change (ACY-1035/veh), VPS36 (ProbeSet 11739960_a_at) / RFU SYPL1 (11715823_x_at) / Fold change /veh SYPL1 (11715823_x_at) / RFU IGFBP7 (11715501_s_at) / Fold change /veh IGFBP7 (11715501_s_at) / RFU REEP3 (11722064_at) / Fold change /veh REEP3 (11722064_at) / RFU IGLL1 (11728026_x_at) / Fold change /veh IGLL1 (11728026_x_at): dose or concentration left out as unconfirmed
Details: MV-4-11 cells, 48 hours

With Nc1ncn([C@@H]2O[C@H](CO)[C@@H](O)[C@H]2O)c(=O)n1 [azacitidine] the “RFU FIZ1 (11724087_x_at)” value was 32.14 RFU.
